What follows are compounds tested against T1, NKGD2-ULBP6 (Homo sapiens, UniProt P26718) (assay: Inhibition of NKG2D (unknown origin)/ULBP6 (unknown origin) protein-protein interaction by cell-based TR-FRET assay).
T1 sequence (P26718 whole entry): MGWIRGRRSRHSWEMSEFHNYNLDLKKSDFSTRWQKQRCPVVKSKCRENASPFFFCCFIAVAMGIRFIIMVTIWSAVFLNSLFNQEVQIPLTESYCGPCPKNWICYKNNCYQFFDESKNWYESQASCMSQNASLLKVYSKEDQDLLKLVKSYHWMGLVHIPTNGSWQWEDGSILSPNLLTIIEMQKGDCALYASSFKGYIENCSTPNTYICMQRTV
T1 sequence (Q5VY80 whole entry): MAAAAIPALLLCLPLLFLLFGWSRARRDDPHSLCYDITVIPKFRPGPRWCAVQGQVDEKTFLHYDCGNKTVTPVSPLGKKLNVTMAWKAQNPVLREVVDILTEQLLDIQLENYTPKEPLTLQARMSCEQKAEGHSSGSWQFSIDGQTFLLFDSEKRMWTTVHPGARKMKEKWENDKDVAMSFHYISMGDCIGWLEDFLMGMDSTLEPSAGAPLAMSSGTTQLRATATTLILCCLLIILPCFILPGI

Row | Structure (SMILES) | IC50 [nM]
1 | CN(C)C(=O)[C@@H](NC(=O)c1nnccc1-c1ccc(C(F)(F)F)cc1)c1cccc(C(F)(F)F)c1 | 1500
2 | CN(C)C(=O)[C@@H](NC(=O)c1ccccc1-c1ccc(C(F)(F)F)cc1)c1cccc(N2CC(CC(F)(F)F)C2)c1 | 3400
3 | CN(C)C(=O)[C@@H](NC(=O)c1cc(-c2nnn[nH]2)ccc1-c1ccc(C(F)(F)F)cc1)c1cccc(C(F)(F)F)c1 | 1500
4 | CN(C)C(=O)C(C)(NC(=O)c1ccccc1-c1ccc(C(F)(F)F)cc1)c1cccc(C(F)(F)F)c1 (stereo unspecified) | > 20000
5 | CN(C)C(=O)[C@@H](NC(=O)c1cnccc1-c1ccc(C(F)(F)F)cc1)c1ccc(F)c(C(F)(F)F)c1 | 400
6 | O=C(NC(C(=O)N1CCC1)c1cccc(C(F)(F)F)c1)c1ccccc1-c1ccc(C(F)(F)F)cc1 (racemic) | 8200
7 | CN(C)C(=O)C(NS(=O)(=O)c1ccccc1-c1ccc(C(F)(F)F)cc1)c1cccc(C(F)(F)F)c1 (stereo unspecified) | > 20000
8 | CN(C)C(=O)[C@@H](NC(=O)c1ccncc1-c1ccc(C(F)(F)F)cc1)c1cccc(C(F)(F)F)c1 | 4800
9 | CN(C)C(=O)[C@@H](NC(=O)c1cnccc1-c1ccc(C(F)(F)F)cc1)c1cc(C(F)(F)F)cc(C(F)(F)F)c1 | 500
10 | CN(C)C(=O)[C@@H](NC(=O)c1ccccc1-c1ccc(C(F)(F)F)cc1)c1ccc(Cl)cc1 | 5800
11 | O=C(NC(C(=O)N1CCC[C@H]1CO)c1cccc(C(F)(F)F)c1)c1ccccc1-c1ccc(C(F)(F)F)cc1 (stereo partly specified) | > 20000
12 | CN(C)C(=O)C(NC(=O)c1ccccc1)c1cccc(C(F)(F)F)c1 (stereo unspecified) | > 20000
13 | Cc1n[nH]c(C)c1-c1ccc(-c2ccc(C(F)(F)F)cc2)c(C(=O)N[C@H](C(=O)N(C)C)c2cccc(C(F)(F)F)c2)c1 | 600
14 | Cc1cc([C@H](NC(=O)c2cnccc2-c2ccc(C(F)(F)F)cc2)C(=O)N(C)C)cc(C(F)(F)F)c1 | 400
15 | CN(C)C(=O)[C@@H](NC(=O)c1cnccc1-c1ccc(C(F)(F)F)cc1)c1cc(F)cc(C(F)(F)F)c1 | 700
16 | O=C(NC(C(=O)N1CC[C@H](CO)C1)c1cccc(C(F)(F)F)c1)c1ccccc1-c1ccc(C(F)(F)F)cc1 (stereo partly specified) | > 20000
17 | CN(C)C(=O)C(NC(=O)c1cncnc1-c1ccc(C(F)(F)F)cc1)c1cccc(C(F)(F)F)c1 (racemic) | > 20000
18 | O=C(NC(C(=O)N1CCCC1)c1cccc(C(F)(F)F)c1)c1ccccc1-c1ccc(C(F)(F)F)cc1 (racemic) | 5100
19 | Cc1ccc([C@H](NC(=O)c2cnccc2-c2ccc(C(F)(F)F)cc2)C(=O)N(C)C)cc1C(F)(F)F | 800
20 | CN(C)C(=O)CNC(=O)c1ccccc1-c1ccc(C(F)(F)F)cc1 | > 20000
21 | CN(C)C(=O)C(NC(=O)c1cccnc1-c1ccc(C(F)(F)F)cc1)c1cccc(C(F)(F)F)c1 (racemic) | > 20000
22 | O=C(N[C@H](C(=O)N1C[C@@H]2[C@H](CO)[C@@H]2C1)c1cccc(C(F)(F)F)c1)c1ccccc1-c1ccc(C(F)(F)F)cc1 | 3100
23 | O=C(NC(C(=O)N1CCC[C@@H]1CO)c1cccc(C(F)(F)F)c1)c1ccccc1-c1ccc(C(F)(F)F)cc1 (stereo partly specified) | 8700

What follows are compounds tested against T2, NKGD2-MICA (Homo sapiens, UniProt P26718) (assay: Inhibition of NKG2D (unknown origin)/MICA (unknown origin) protein-protein interaction by cell-based TR-FRET assay).
T2 sequence (P26718 whole entry): T1 sequence (P26718 whole entry)
T2 sequence (Q29983 whole entry): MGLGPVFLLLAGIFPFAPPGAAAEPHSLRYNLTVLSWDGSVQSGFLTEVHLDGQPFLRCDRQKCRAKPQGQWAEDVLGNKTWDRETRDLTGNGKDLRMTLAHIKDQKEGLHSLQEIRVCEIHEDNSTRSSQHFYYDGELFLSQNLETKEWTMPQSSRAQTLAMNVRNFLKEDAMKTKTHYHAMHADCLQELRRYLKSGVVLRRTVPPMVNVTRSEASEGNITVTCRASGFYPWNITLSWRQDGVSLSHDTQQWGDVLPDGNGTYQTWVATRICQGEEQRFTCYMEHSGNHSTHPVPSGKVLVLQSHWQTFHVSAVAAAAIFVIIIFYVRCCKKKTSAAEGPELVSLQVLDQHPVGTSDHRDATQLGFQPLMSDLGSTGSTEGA

Row | Structure (SMILES) | IC50 [nM]
24 | CN(C)C(=O)[C@@H](NC(=O)c1nnccc1-c1ccc(C(F)(F)F)cc1)c1cccc(C(F)(F)F)c1 | 400
25 | CN(C)C(=O)[C@@H](NC(=O)c1ccccc1-c1ccc(C(F)(F)F)cc1)c1cccc(N2CC(CC(F)(F)F)C2)c1 | 1600
26 | CN(C)C(=O)[C@@H](NC(=O)c1cc(-c2nnn[nH]2)ccc1-c1ccc(C(F)(F)F)cc1)c1cccc(C(F)(F)F)c1 | 500
27 | CN(C)C(=O)C(C)(NC(=O)c1ccccc1-c1ccc(C(F)(F)F)cc1)c1cccc(C(F)(F)F)c1 (stereo unspecified) | > 20000
28 | CN(C)C(=O)[C@@H](NC(=O)c1cnccc1-c1ccc(C(F)(F)F)cc1)c1ccc(F)c(C(F)(F)F)c1 | 200
29 | O=C(NC(C(=O)N1CCC1)c1cccc(C(F)(F)F)c1)c1ccccc1-c1ccc(C(F)(F)F)cc1 (racemic) | 3400
30 | CN(C)C(=O)C(NS(=O)(=O)c1ccccc1-c1ccc(C(F)(F)F)cc1)c1cccc(C(F)(F)F)c1 (stereo unspecified) | > 20000
31 | CN(C)C(=O)[C@@H](NC(=O)c1ccncc1-c1ccc(C(F)(F)F)cc1)c1cccc(C(F)(F)F)c1 | 1600
32 | CN(C)C(=O)[C@@H](NC(=O)c1cnccc1-c1ccc(C(F)(F)F)cc1)c1cc(C(F)(F)F)cc(C(F)(F)F)c1 | 200
33 | CN(C)C(=O)[C@@H](NC(=O)c1ccccc1-c1ccc(C(F)(F)F)cc1)c1ccc(Cl)cc1 | 3300
34 | O=C(NC(C(=O)N1CCC[C@H]1CO)c1cccc(C(F)(F)F)c1)c1ccccc1-c1ccc(C(F)(F)F)cc1 (stereo partly specified) | 14500
35 | CN(C)C(=O)C(NC(=O)c1ccccc1)c1cccc(C(F)(F)F)c1 (stereo unspecified) | > 20000
36 | Cc1n[nH]c(C)c1-c1ccc(-c2ccc(C(F)(F)F)cc2)c(C(=O)N[C@H](C(=O)N(C)C)c2cccc(C(F)(F)F)c2)c1 | 400
37 | Cc1cc([C@H](NC(=O)c2cnccc2-c2ccc(C(F)(F)F)cc2)C(=O)N(C)C)cc(C(F)(F)F)c1 | 100
38 | CN(C)C(=O)[C@@H](NC(=O)c1cnccc1-c1ccc(C(F)(F)F)cc1)c1cc(F)cc(C(F)(F)F)c1 | 200
39 | O=C(NC(C(=O)N1CC[C@H](CO)C1)c1cccc(C(F)(F)F)c1)c1ccccc1-c1ccc(C(F)(F)F)cc1 (stereo partly specified) | 10500
40 | CN(C)C(=O)C(NC(=O)c1cncnc1-c1ccc(C(F)(F)F)cc1)c1cccc(C(F)(F)F)c1 (racemic) | > 20000
41 | O=C(NC(C(=O)N1CCCC1)c1cccc(C(F)(F)F)c1)c1ccccc1-c1ccc(C(F)(F)F)cc1 (racemic) | 2500
42 | Cc1ccc([C@H](NC(=O)c2cnccc2-c2ccc(C(F)(F)F)cc2)C(=O)N(C)C)cc1C(F)(F)F | 300
43 | CN(C)C(=O)CNC(=O)c1ccccc1-c1ccc(C(F)(F)F)cc1 | > 20000
44 | CN(C)C(=O)C(NC(=O)c1cccnc1-c1ccc(C(F)(F)F)cc1)c1cccc(C(F)(F)F)c1 (racemic) | > 20000
45 | O=C(N[C@H](C(=O)N1C[C@@H]2[C@H](CO)[C@@H]2C1)c1cccc(C(F)(F)F)c1)c1ccccc1-c1ccc(C(F)(F)F)cc1 | 1600
46 | O=C(NC(C(=O)N1CCC[C@@H]1CO)c1cccc(C(F)(F)F)c1)c1ccccc1-c1ccc(C(F)(F)F)cc1 (stereo partly specified) | 4000

Reference: ChEMBL document CHEMBL5390216, “Development of small molecule inhibitors of natural killer group 2D receptor (NKG2D)” (Bioorg Med Chem Lett, 2023)
